Experimental data from publication PMC7949135, “Structural analysis of carbohydrate binding by the macrophage mannose receptor CD206” (The Journal of Biological Chemistry, 2021).
Like-named read-outs stand apart in the source and are kept apart here.

Target: T1, biotin-tagged CRD4 (carbohydrate-recognition domain 4 of the mannose receptor, CD206) (Homo sapiens, UniProt P22897)
T1 construct: gene MRC1; borders from residues reported in crystals
T1 sequence (P22897 646-779): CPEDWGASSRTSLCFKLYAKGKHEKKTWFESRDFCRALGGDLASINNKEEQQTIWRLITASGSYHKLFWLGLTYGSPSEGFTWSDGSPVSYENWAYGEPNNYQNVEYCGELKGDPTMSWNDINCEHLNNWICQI
Experiment: solid-phase competition with horseradish peroxidase, CRD4 immobilised on streptavidin plates
Assay type: binding
Description: solid-phase competition with horseradish peroxidase, CRD4 immobilised on streptavidin plates on biotin-tagged CRD4 (carbohydrate-recognition domain 4 of the mannose receptor, CD206)

[1] = competitive, 2.5 mM CaCl2, 150 mM NaCl, 25 mM Tris-Cl pH 7.8, 4 °C

SMILES: OC[C@H]1O[C@H](O[C@H]2[C@H](O)[C@H](O)C(O)O[C@@H]2CO)[C@@H](O)[C@@H](O)[C@@H]1O (some centres unmarked) [Manα1-4Man]
- Ki [1]: 730 ± 70 µM

SMILES: OC[C@H]1O[C@H](O[C@@H]2C(O)O[C@H](CO)[C@@H](O)[C@@H]2O)[C@@H](O)[C@@H](O)[C@@H]1O (some centres unmarked) [Manα1-2Man]
- Ki [1]: 480 ± 40 µM

SMILES: CC(=O)N[C@H]1[C@H](O[C@H]2[C@H](O)[C@@H](NC(C)=O)C(O)O[C@@H]2CO)O[C@H](CO)[C@@H](O[C@@H]2O[C@H](CO[C@H]3O[C@H](CO[C@H]4O[C@H](CO)[C@@H](O)[C@H](O)[C@@H]4O[C@H]4O[C@H](CO)[C@@H](O)[C@H](O)[C@@H]4O)[C@@H](O)[C@H](O[C@H]4O[C@H](CO)[C@@H](O)[C@H](O)[C@@H]4O[C@H]4O[C@H](CO)[C@@H](O)[C@H](O)[C@@H]4O)[C@@H]3O)[C@@H](O)[C@H](O[C@H]3O[C@H](CO)[C@@H](O)[C@H](O)[C@@H]3O[C@H]3O[C@H](CO)[C@@H](O)[C@H](O)[C@@H]3O[C@H]3O[C@H](CO)[C@@H](O)[C@H](O)[C@@H]3O)[C@@H]2O)[C@@H]1O (some centres unmarked) [Man9]
- Ki [1]: 23 ± 0.4 µM

SMILES: OC[C@H]1O[C@H](OC[C@H]2OC(O)[C@@H](O)[C@@H](O[C@H]3O[C@H](CO)[C@@H](O)[C@H](O)[C@@H]3O)[C@@H]2O)[C@@H](O)[C@@H](O)[C@@H]1O (some centres unmarked) [Manα1-6(Manα1-3)Man]
- Ki [1]: 300 ± 80 µM

SMILES: OC[C@H]1O[C@H](OC[C@H]2OC(O)[C@@H](O)[C@@H](O)[C@@H]2O)[C@@H](O)[C@@H](O)[C@@H]1O (some centres unmarked) [Manα1-6Man]
- Ki [1]: 380 ± 30 µM

SMILES: CO[C@H]1O[C@H](CO)[C@@H](O)[C@H](O)[C@@H]1O [α-Methyl mannose]
- Ki: 900 ± 100 µM

SMILES: CO[C@@H]1O[C@@H](C)[C@@H](O)[C@@H](O)[C@@H]1O [αMeFuc]
- Ki: 110 ± 20 µM

SMILES: OC[C@H]1O[C@H](O[C@H]2[C@H](O)[C@@H](CO)OC(O)[C@H]2O)[C@@H](O)[C@@H](O)[C@@H]1O (some centres unmarked) [Manα1-3Man]
- Ki [1]: 860 ± 50 µM
